Laboratory results published in US9427468B2, “Compositions and methods for diagnosing and treating community-acquired methicillin-resistant Staphylococcus aureus” (priority 2007, dated 2016).
Marks after values point to notes of the source that are not given here.

Key:
Type in all cases: cell-based, Staphylococcus aureus
[1] = system: MRSA252 HA-MRSA; assay: Minimum bactericidal concentration (MBC); details: for combination: MBC of oxacillin with ¼ MIC cefoxitin
Protocol: (§1) Minimum inhibitory concentrations and minimum bactericidal concentrations (MIC and MBC, respectively) were determined for each isolate in triplicate by microdilution techniques with an inoculum of 5×10^5 CFU/ml according to the Clinical and Laboratory Standards Institute guidelines. Aliquots (5 μl) from clear wells were plated onto TSA drug-free plates for the determination of MBCs, followed by incubation at 37° C. for 24 and 48 hours. For the mutant strains, each one of the three clones was tested. MIC data were reported as median values from at least three independent experiments for each antibiotic. Also, strains containing pEPSA5-based plasmids were tested with and without xylose induction, but chloramphenicol was not added to avoid interference with beta-lactam resistance evaluation. […] The correct inocula were confirmed by plating serial dilutions on agar.

[2] = system: Mu50 HA-MRSA/VISA; assay: Minimum bactericidal concentration (MBC); details: for combination: MBC of oxacillin with ¼ MIC cefoxitin
Protocol: as §1

[3] = system: COL HA-MRSA; assay: Minimum bactericidal concentration (MBC); details: for combination: MBC of oxacillin with ¼ MIC cefoxitin
Protocol: as §1

[4] = system: CA-MRSA from CSSTI (30 isolates); assay: MIC and synergy assay, clinical isolates
Text: (§2) Analysis of the Type IV SCCmec element, virtually identical between MW2 and USA300, allowed for identification of four genes conserved in the CA-MRSA background, but not in other known MRSA genomes. These four genes therefore served as biomarkers that could be used to distinguish CA-MRSA strains from HA-MRSA strains. PCR of chromosomal DNAs with oligonucleotides specific for mecA, pvl (Lina, G. et al. 1999. Clin. Infect. Dis. 29:1128-1132) and the four specific genes for CA-MRSAs (MW0042/USA300_0041; MW0043/USA300_0042; MW0046/USA300_0045; and MW0047/USA300_0046) identified 30 isolates positive for these genes. […] The code was subsequently broken, confirming that all 30 isolates, designated as CA-MRSA, were from patients with primary skin infections and annotated by the donating hospital as CA-MRSA while the other were blood isolates designated as HA-MRSA. […] The synergistic inhibitory activity of the combined treatment also was further tested on 30 MRSA isolates from complicated skin and soft tissue infections, with CA-MRSA being the most common etiologic agent.
(§3) Two independent batches of clinical isolates were obtained from the Dartmouth Hitchcock Medical Center, Lebanon, N.H. The first group included 200 blood MRSA isolates sub-cultured on 5% Columbia sheep blood agar (Remel). The second group involved 30 MRSA isolates from complicated skin and soft tissue infections (CSSTI) similarly sub-cultured. All strains were grown overnight in CSMHB broth and streaked on selective mannitol salt agar plates for confirmation. DNA extraction was performed on 500 μl of cultures. PCR was performed on all DNAs with oligonucleotides specific for mecA, pvl and the four genes found to be specific for the SCCmec type IV in CA-MRSA: MW0042, MW0043, MW0046, and MW0047. DNA amplification of mecA was used as a control to confirm that all strains were MRSA. DNAs from S. epidermidis, E. coli and S. pneumoniae were used as negative controls to confirm the specificity of the oligonucleotides. After amplification for 30 cycles (5 min of denaturation at 95° C., 30 s of annealing at 54° C. and 1 min extension at 72° C.), PCR products were resolved by electrophoresis through 1.5% agarose gels stained with ethidium bromide. Given the number of clinical isolates tested, only a small random group of PCR products were subjected to DNA sequencing to confirm specificity. S. aureus strain COL, Mu50, N315 and MRSA252 all tested negative for all MW0042, MW0043 and MW0047 and pvl while USA300 and MW2 were positive controls for this PCR reaction. The primer sequences for mecA, MW0042, MW0043 and MW0047 were as follows: mecA-UP 5′-GGTACTGCTATCCACCCTCAAA-3′ (SEQ ID NO:19), mecA-LOW 5′-TTACGACTTGTTGCATACCATCA-3′ (SEQ ID NO:20), MW0042-UP 5′-ATTGGCAGAAATAAACAAAACG-3′ (SEQ ID NO:21), MW0042-LOW 5′-TCGTTTAATTTTTTCCCAAACTC-3′ (SEQ ID NO:22), MW0043-UP 5′-GTTTCAGTTGGTGTTGAAGATCC-3′ (SEQ ID NO:23), MW0043-LOW 5′-CCTATAATTTTCGATAGATTCGTG-3′ (SEQ ID NO:24), MW0047-UP 5′-AGGCATATAAAGAAGCAGGAAAG-3′ (SEQ ID NO:25), MW0047-LOW 5′-CACACTGTTTTCCTACGATATTTG-3′ (SEQ ID NO:26).
as §1, with “agar. […]” for “agar.”

[5] = system: HA-MRSA Strains (30 clinical isolates); assay: MIC and synergy assay, clinical isolates
Text: as §2, §3
as §1, with “agar. […]” for “agar.”

[6] = system: CA-MRSA Strains (30 clinical isolates); assay: MIC and synergy assay, clinical isolates
Text: as §2, §3
as §1, with “agar. […]” for “agar.”

[7] = Staphylococcus aureus, MRSA, 48 h, read-out: MICs 48 hr

Row | SMILES | MBC 48 hr [1] [µg/mL] | MBC 48 hr [2] [µg/mL] | MBC 48 hr [3] [µg/mL] | MICs 48 hr ([4]; 30 CSSTI isolates, median values, 48 hr) | MICs 48 hr ([5]; 30 HA-MRSA clinical isolates, median values, 48 hr) | MICs 48 hr ([6]; 30 CA-MRSA clinical isolates, median values, 48 hr) | MIC [4, 7] [µg/mL] | MIC [5, 7] [µg/mL] | MIC [6, 7] [µg/mL]
1 | Cc1onc(-c2ccccc2)c1C(=O)N[C@@H]1C(=O)N2[C@@H]1SC(C)(C)[C@@H]2C(=O)O [OX, oxacillin] | >256 | >256 | >256 | 64^b μg/ml | 256^b μg/ml | 64^b μg/ml | – | – | –
2 | CO[C@@]1(NC(=O)Cc2cccs2)C(=O)N2C(C(=O)O)=C(COC(N)=O)CS[C@@H]21 [CX, cefoxitin] | – | – | – | – | – | – | 64 | 128 | 64
